Measurements taken from the supplement of paper PMC10307832.

Key:
Test in all cases: relative viability (nuclei count vs DMSO), 5 days (fraction); higher = more cells survive
[1] = system: NCI-H2087
How it was run: (§1)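 Values are medians from duplicate plates. Each reflects relative viability, defined as the nuclei count of treated wells over that of vehicle wells. Lung cancer cell lines in 1536-well plates were pin-tool dosed one day after seeding with one drug alone or with a fixed anchor-drug dose plus five library-drug doses (not always all listed) in √10 steps, then fixed, stained and imaged at 4× after 5 days.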

[2] = system: LXF-289
How it was run: as §1

[3] = system: NCI-H2085
How it was run: as §1

[4] = system: NCI-H1651
How it was run: as §1

[5] = system: LU99A
How it was run: as §1

[6] = system: NCI-H1755
How it was run: as §1

[7] = system: NCI-H1993
How it was run: as §1

[8] = system: NCI-H1355
How it was run: as §1

[9] = system: BEN
How it was run: as §1

[10] = system: PC-14
How it was run: as §1

[11] = system: NCI-H1437
How it was run: as §1

[12] = system: NCI-H460
How it was run: as §1

[13] = system: NCI-H1666
How it was run: as §1

[14] = system: HCC-44
How it was run: as §1

[15] = system: CAL-12T
How it was run: as §1

[16] = system: NCI-H2170
How it was run: as §1

[17] = system: NCI-H1792
How it was run: as §1

Compound: CCNC(=O)c1noc(-c2cc(C(C)C)c(O)cc2O)c1-c1ccc(CN2CCOCC2)cc1 [Luminespib] + NC(=O)Nc1cc(-c2cccc(F)c2)sc1C(=O)N[C@H]1CCCNC1 [AZD7762] (partner 0.2 µM)
- relative viability ([1]; first compound 0.002 µM): 1.34
- relative viability ([1]; first compound 0.006325 µM): 1.1
- relative viability ([1]; first compound 0.02 µM): 1.45
- relative viability ([1]; first compound 0.06325 µM): 0.19
- relative viability ([1]; first compound 0.2 µM): 0.117
- relative viability ([2]; first compound 0.002 µM): 1.07
- relative viability ([2]; first compound 0.006325 µM): 1.1
- relative viability ([2]; first compound 0.02 µM): 1.12
- relative viability ([2]; first compound 0.06325 µM): 0.151
- relative viability ([2]; first compound 0.2 µM): 0.0914
- relative viability ([3]; first compound 0.002 µM): 0.923
- relative viability ([3]; first compound 0.006325 µM): 0.909
- relative viability ([3]; first compound 0.02 µM): 0.694
- relative viability ([3]; first compound 0.06325 µM): 0.389
- relative viability ([3]; first compound 0.2 µM): 0.245
- relative viability ([4]; first compound 0.002 µM): 0.445
- relative viability ([4]; first compound 0.006325 µM): 0.441
- relative viability ([4]; first compound 0.02 µM): 0.277
- relative viability ([4]; first compound 0.06325 µM): 0.446
- relative viability ([4]; first compound 0.2 µM): 0.181
- relative viability ([5]; first compound 0.002 µM): 0.378
- relative viability ([5]; first compound 0.006325 µM): 0.347
- relative viability ([5]; first compound 0.02 µM): 0.214
- relative viability ([5]; first compound 0.06325 µM): 0.0724
- relative viability ([5]; first compound 0.2 µM): 0.0654
- relative viability ([6]; first compound 0.002 µM): 0.429
- relative viability ([6]; first compound 0.006325 µM): 0.355
- relative viability ([6]; first compound 0.02 µM): 0.352
- relative viability ([6]; first compound 0.06325 µM): 0.245
- relative viability ([6]; first compound 0.2 µM): 0.161
- relative viability ([7]; first compound 0.002 µM): 0.759
- relative viability ([7]; first compound 0.006325 µM): 0.772
- relative viability ([7]; first compound 0.02 µM): 0.513
- relative viability ([7]; first compound 0.06325 µM): 0.247
- relative viability ([7]; first compound 0.2 µM): 0.237
- relative viability ([8]; first compound 0.002 µM): 0.822
- relative viability ([8]; first compound 0.006325 µM): 0.693
- relative viability ([8]; first compound 0.02 µM): 0.526
- relative viability ([8]; first compound 0.06325 µM): 0.324
- relative viability ([8]; first compound 0.2 µM): 0.145
- relative viability ([9]; first compound 0.002 µM): 0.687
- relative viability ([9]; first compound 0.006325 µM): 0.669
- relative viability ([9]; first compound 0.02 µM): 0.405
- relative viability ([9]; first compound 0.06325 µM): 0.516
- relative viability ([9]; first compound 0.2 µM): 0.272
- relative viability ([10]; first compound 0.002 µM): 0.32
- relative viability ([10]; first compound 0.006325 µM): 0.38
- relative viability ([10]; first compound 0.02 µM): 0.179
- relative viability ([10]; first compound 0.06325 µM): 0.102
- relative viability ([10]; first compound 0.2 µM): 0.0933
- relative viability ([11]; first compound 0.002 µM): 1.11
- relative viability ([11]; first compound 0.006325 µM): 1.04
- relative viability ([11]; first compound 0.02 µM): 1.15
- relative viability ([11]; first compound 0.06325 µM): 0.785
- relative viability ([11]; first compound 0.2 µM): 0.278
- relative viability ([12]; first compound 0.002 µM): 0.679
- relative viability ([12]; first compound 0.006325 µM): 0.628
- relative viability ([12]; first compound 0.02 µM): 0.717
- relative viability ([12]; first compound 0.06325 µM): 0.0326
- relative viability ([12]; first compound 0.2 µM): 0.0406
- relative viability ([13]; first compound 0.002 µM): 0.828
- relative viability ([13]; first compound 0.006325 µM): 0.835
- relative viability ([13]; first compound 0.02 µM): 0.903
- relative viability ([13]; first compound 0.06325 µM): 0.78
- relative viability ([13]; first compound 0.2 µM): 0.589
- relative viability ([14]; first compound 0.002 µM): 1.04
- relative viability ([14]; first compound 0.006325 µM): 0.995
- relative viability ([14]; first compound 0.02 µM): 1.15
- relative viability ([14]; first compound 0.06325 µM): 1.07
- relative viability ([14]; first compound 0.2 µM): 0.959
- relative viability ([15]; first compound 0.002 µM): 0.698
- relative viability ([15]; first compound 0.006325 µM): 0.691
- relative viability ([15]; first compound 0.02 µM): 0.542
- relative viability ([15]; first compound 0.06325 µM): 0.188
- relative viability ([15]; first compound 0.2 µM): 0.182
- relative viability ([16]; first compound 0.002 µM): 0.868
- relative viability ([16]; first compound 0.006325 µM): 0.851
- relative viability ([16]; first compound 0.06325 µM): 0.118
- relative viability ([16]; first compound 0.2 µM): 0.104
- relative viability ([17]; first compound 0.002 µM): 0.797
- relative viability ([17]; first compound 0.006325 µM): 0.519
- relative viability ([17]; first compound 0.02 µM): 0.146
- relative viability ([17]; first compound 0.06325 µM): 0.0335
- relative viability ([17]; first compound 0.2 µM): 0.0361
